The subject of data set [1] is Dd2 (CQ^R) P. falciparum strain. The data set can be described thus: In vitro fluorescence (Sybr Green I) growth inhibition assay, Dd2 strain. It counts as cell-based. The settings on record: Plasmodium falciparum, DD2; Table 13; growth inhibition; read-out: IC50 (nM) Dd2 (CQ^R). From the text: One exemplary method for measuring inhibitory effects of RCQ compound in vitro has been reported by Smilkstein et al. (Antimicrob. Agents Chemother., 48(5):1803-1806, 2004). This method employs fluorescent detection of the level of parasitemia in cultured red blood cells and can be automated for high-throughput screening of antimalarial RCQs. This exemplary method allows the inhibitory agent (such as a RCQ) to be in contact with the parasite for an entire developmental cycle without purine starvation, which is in contrast to the traditional ^3H-hypoxanthine method (Desjardins et al., Antimicrob. Agents Chemother., 16(6):710-718, 1979). Briefly, to perform the Smilkstein et al. method, an initial parasitemia of approximately 0.2% is attained by adding uninfected red blood cells (RBCs) to a stock culture of Plasmodium sp.-infected RBCs. […] After a period of incubation (such as about 72 hours), a sufficient amount (e.g., 100 μL) of a fluorescent DNA binding dye-detergent mixture (e.g., Sybr Green I dye-detergent mixture) to lyse cells and bind to DNA is added to the reactions. Because uninfected RBCs have no DNA, only parasite DNA (in infected RBCs) is available for binding to the fluorescent dye (e.g., Sybr Green I). Samples are then incubated in the dark for a period of time (e.g., one hour), followed by measurement of levels of fluorescence. For Sybr Green I, excitation and emission wavelength are 485 and 530 nm, respectively. Fluorescence readings, which represent the amount of parasite DNA in the sample, can be plotted against the Log [drug] and fit to a curve by nonlinear regression to obtain the IC50 value for the tested compound.
An in vitro fluorescence assay for determining IC50 of antimalarial drugs was performed as previously described by Smilkstein et al. (Antimicrob. Agents Chemother., 48(5):1803-1806, 2004). This relatively low-cost procedure can be automated for high-throughput screening of the antimalarial activities of RCQs described herein. Advantageous, this method also allows the tested agent (e.g, a RCQ) to be in contact with the parasite for an entire developmental cycle without purine starvation (which occurs with the commonly used ^3H-hypoxanthine method; see, e.g., Desjardins et al., Antimicrob. Agents Chemother., 16, (6):[…], 1979).
Briefly, an initial parasitemia of approximately 0.2% was attained by addition of uninfected red blood cells to a stock culture of cells infected with Dd2 (CQ^R) or D6 (CQ^S) P. falciparum strains. A 10 mM RCQ_02 solution (in DMSO) was prepared. RCQ_02 (at a final concentration from 10^−11 to 10^−4 M) and infected red blood cells (at a final concentration of 2% (v/v)) were mixed in 100 μL samples in individual wells of a 96-well plate. Each sample was prepared in triplicate. A triplicate set of reactions containing CQ (instead of RCQ_02) was included as a control. After a 72 hour incubation period, Sybr Green I dye-detergent mixture (100 μL) was added to each reaction. The samples were further incubated for an hour in the dark, and then placed in a 96-well fluorescence plate reader (Gemini-EM, […]) and analyzed with excitation and emission wavelength bands at 485 and 530 nm, respectively. Fluorescence readings were plotted against the Log [drug], and curve fitting performed by nonlinear regression to find the IC50 value.

For data set [2], the system named is P. chabaudi parasites. Nature of the data set: 4-day suppressive test in infected mice. The settings on record: 64 mg/kg oral gavage once per day for four days; male CF-1 mice; by day 4. It counts as in vivo. The source says:
Antimalarial compounds can also be tested for efficacy in vivo. One non-limiting exemplary method for performing such testing is the 4-day suppressive test (Peters, Ann. Trop. Med. Parasitol., 69(2):155-171, 1975). Briefly, such test involves collecting P. chabaudi (Mackinnon and Read, Philos. Trans. R. Soc. Lond. B Biol. Sci., 359:965-986, 2004; Mackinnon et al., Exp. Parasitol., 101 (2-3):121-128, 2002) from a donor animal harboring ˜20% parasitemia. Male CF-1 mice at 4-5 weeks of age (˜20 g) are infected with ˜10^7 infected red blood cells via 100 μL tail vein injection and randomly sorted into groups of 4 mice each on day 0. One hour after infection, the mice receive the test agent via oral gavage, or by the intraperitoneal route (at approximately 1-10 times the in vitro IC50 values). Drugs are administered once daily for at least 4 days beginning at day 0. […] Efficacy of a tested compound in this bioassay is measured by inhibition of parasite growth as defined previously. […]
A variation of the 4-day suppressive test described by Peters (Ann. Trop. Med. Parasitol., 69(2):155-171, 1975) was used to test the in vivo effectiveness of RCQ_02 as a treatment for Plasmodium sp. infection. Briefly, P. chabaudi parasites (Mackinnon and Read, Philos. Trans. R. Soc. Lond. B Biol. Sci., 359:965-986, 2004) were collected from a donor animal harboring approximately 20% parasitemia. […]

For data set [3], the system named is mitogen-induced murine spleen lymphocytes. It counts as cell-based. The settings on record: mouse spleen lymphocytes. As for the experimental part: Mouse spleen lymphocytes were isolated from C57B1/6J mice by teasing tissues on a metallic sieve screen. […] Two hundred (200) μl isolated cells were then seeded in separate wells of a 96-well flat-bottom tissue culture plate at a density of 2×10^5 cells per well. […] After 72 hours incubation in a humidified atmosphere at 37° C. and 5% CO2, a solution of resazurin PBS was added to a final concentration 10 μM, and the plates were returned to the incubator for another 24 hours. Resazurin is a substrate which changes color in response to metabolic activity (such as, living cells). […] LC50 values were determined from plots of florescence versus drug concentration using non-linear regression by Prism software.

In general, IC50 refers to the concentration that inhibits the measured activity by half.

As for `CN(CCCNc1ccnc2cc(Cl)ccc12)CCCN1c2ccccc2CCc2ccccc21` [RCQ_02, N′-(7-Chloro-quinolin-4-yl)-N-[3-(10,11-dihydro-dibenzo[b,f]azepin-5-yl)-propyl]-N-methyl-propane-1,3-diamine], in data set [1], the IC50 came to 5.3 nM. Also, the cleared of parasites in data set [2] is above 99%. In data set [3] (LC50, 72 hours + 24 hours resazurin), the “Cytotoxicity” value worked out at 700 nM. This molecule yielded a cytotoxicity values in data set [3] (Table 14) of 700 nM.

(Values after US9493420B2, “Quinoline derivatives and uses thereof” (Portland State University, priority 2005, dated 2016).)
